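1) Cells in 96-well plates. 2) Compound, 48 h, 5 concentrations. 3) Linear interpolation between surrounding doses. 4) Unreached endpoint = highest concentration. GI50: concentration for 50% inhibition of growth. Definition used: TGI = concentration required for complete inhibition of growth.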
Tests used:
Test in all cases: NCI anticancer screen, dose series, 48 h
[1] = tested on: HT29 colon
[2] = tested on: SK-MEL-28 melanoma
[3] = tested on: SW-620 colon
[4] = tested on: SF-539 CNS
[5] = tested on: HS 578T breast
[6] = tested on: OVCAR-5 ovarian
[7] = tested on: UO-31 renal
[8] = tested on: UACC-257 melanoma
[9] = tested on: OVCAR-8 ovarian
[10] = tested on: COLO 205 colon
[11] = tested on: EKVX NSCLC
[12] = tested on: SK-OV-3 ovarian
[13] = tested on: CAKI-1 renal
[14] = tested on: SNB-75 CNS
[15] = tested on: NCI/ADR-RES ovarian
[16] = tested on: SK-MEL-2 melanoma
[17] = tested on: LOX IMVI melanoma
[18] = tested on: SK-MEL-5 melanoma
[19] = tested on: HL-60(TB) leukemia
[20] = tested on: RPMI-8226 leukemia
[21] = tested on: MOLT-4 leukemia
[22] = tested on: OVCAR-3 ovarian
[23] = tested on: M14 melanoma
[24] = tested on: K-562 leukemia
[25] = tested on: MDA-MB-231 breast
[26] = tested on: ACHN renal
[27] = tested on: UACC-62 melanoma
[28] = tested on: DU-145 prostate
[29] = tested on: HOP-92 NSCLC
[30] = tested on: NCI-H460 lung
[31] = tested on: CCRF-CEM leukemia
[32] = tested on: A498 renal
[33] = tested on: HCC-2998 colon
[34] = tested on: MALME-3M melanoma
[35] = tested on: 786-0 renal
[36] = tested on: HCT-15 colon
[37] = tested on: RXF 393 renal
[38] = tested on: NCI-H23 lung
[39] = tested on: SNB-19 CNS
[40] = tested on: TK-10 renal
[41] = tested on: PC-3 prostate
[42] = tested on: SF-295 CNS
[43] = tested on: MCF7 breast
[44] = tested on: IGROV1 ovarian
[45] = tested on: OVCAR-4 ovarian
[46] = tested on: SN12C renal
[47] = tested on: NCI-H226 lung
[48] = tested on: HCT-116 colon
[49] = tested on: A549 NSCLC
[50] = tested on: T-47D breast
[51] = tested on: MDA-MB-435
[52] = tested on: KM12 colon
[53] = tested on: U251 CNS
[54] = tested on: HOP-62 NSCLC
[55] = tested on: SF-268 CNS
[56] = tested on: BT-549 breast

Cc1cn2c(/C=N/N=C(N)N)c(-c3ccc(Cl)c([N+](=O)[O-])c3)nc2s1
TGI [1]: 2.72 µM | TGI [2]: 3.05 µM | TGI [3]: > 100 µM | TGI [4]: 3.11 µM | TGI [5]: > 100 µM | TGI [6]: 2.41 µM | TGI [7]: 3.4 µM | TGI [8]: > 100 µM | TGI [9]: > 100 µM | TGI [10]: 1.88 µM | TGI [11]: 2100 nM | TGI [12]: 3.15 µM | TGI [13]: > 100 µM | TGI [14]: 2.37 µM | TGI [15]: > 100 µM | TGI [16]: 1.6 µM

O=C1/C(=C/N2N=C(c3ccc4ccccc4c3)CC2c2ccccc2O)SC(=S)N1c1cccnc1 (centres undefined)
GI50 [17]: 1240 nM | TGI [17]: > 100 µM | GI50 [18]: 3.01 µM | TGI [18]: 39 µM | GI50 [19]: 616 nM | TGI [19]: > 100 µM | GI50 [20]: 391 nM | TGI [20]: > 100 µM | GI50 [21]: 2460 nM | TGI [21]: > 100 µM | GI50 [1]: 3.05 µM | TGI [1]: > 100 µM | GI50 [3]: 365 nM | TGI [3]: > 100 µM | GI50 [22]: 571 nM | TGI [22]: 38.5 µM | GI50 [23]: 840 nM | TGI [23]: > 100 µM | GI50 [24]: 0.341 µM | TGI [24]: > 100 µM | GI50 [25]: 2.29 µM | TGI [25]: 8.34 µM | GI50 [4]: 1180 nM | TGI [4]: 5.16 µM | GI50 [26]: 1650 nM | TGI [26]: > 100 µM | GI50 [27]: 4.06 µM | TGI [27]: > 100 µM | GI50 [28]: 1500 nM | TGI [28]: > 100 µM | GI50 [5]: 2550 nM | TGI [5]: > 100 µM | GI50 [6]: 6.19 µM | TGI [6]: > 100 µM | GI50 [7]: 852 nM | TGI [7]: > 100 µM | GI50 [29]: 5.2 µM | TGI [29]: > 100 µM | GI50 [9]: 2.36 µM | TGI [9]: > 100 µM | GI50 [30]: 514 nM | TGI [30]: > 100 µM | GI50 [10]: 1880 nM | TGI [10]: > 100 µM | GI50 [31]: 625 nM | TGI [31]: > 100 µM | GI50 [32]: 1.38 µM | TGI [32]: 5.83 µM | GI50 [33]: 3.06 µM | TGI [33]: > 100 µM | GI50 [34]: 5.2 µM | TGI [34]: > 100 µM | GI50 [12]: 5.95 µM | TGI [12]: > 100 µM | GI50 [35]: 492 nM | TGI [35]: > 100 µM | GI50 [36]: 428 nM | TGI [36]: > 100 µM | GI50 [37]: 1600 nM | TGI [37]: 8.19 µM | GI50 [38]: 3.03 µM | TGI [38]: > 100 µM | GI50 [39]: 3.85 µM | TGI [39]: > 100 µM | GI50 [40]: 1840 nM | TGI [40]: > 100 µM | GI50 [13]: 1030 nM | TGI [13]: > 100 µM | GI50 [41]: 518 nM | TGI [41]: > 100 µM | GI50 [42]: 2630 nM | TGI [42]: > 100 µM | GI50 [43]: 371 nM | TGI [43]: > 100 µM | GI50 [44]: 1470 nM | TGI [44]: > 100 µM | GI50 [45]: 4.41 µM | TGI [45]: > 100 µM | GI50 [46]: 2220 nM | TGI [46]: > 100 µM | GI50 [47]: 4.9 µM | TGI [47]: > 100 µM | GI50 [48]: 330 nM | TGI [48]: > 100 µM | GI50 [49]: 704 nM | TGI [49]: > 100 µM | GI50 [50]: 3.8 µM | TGI [50]: > 100 µM | GI50 [14]: 987 nM | TGI [14]: 13.1 µM | GI50 [51]: 481 nM | TGI [51]: 3.17 µM | GI50 [15]: 3.43 µM | TGI [15]: > 100 µM | GI50 [52]: 473 nM | TGI [52]: > 100 µM | GI50 [53]: 897 nM | TGI [53]: 61 µM | GI50 [54]: 2490 nM | TGI [54]: > 100 µM | GI50 [55]: 4.08 µM | TGI [55]: > 100 µM

COc1ccc(-c2cc(-c3ccc(Nc4ccnc5cc(Cl)ccc45)cc3)nc(N3CCOCC3)n2)cc1
GI50 [19]: 4800 nM | TGI [19]: > 100 µM | GI50 [56]: 2730 nM | TGI [56]: > 100 µM | GI50 [20]: 3790 nM | TGI [20]: > 100 µM | GI50 [1]: 3.28 µM | TGI [1]: > 100 µM | GI50 [23]: 2810 nM | TGI [23]: > 100 µM | GI50 [24]: 6.18 µM | TGI [24]: > 100 µM | GI50 [25]: 7.52 µM | TGI [25]: > 100 µM | GI50 [6]: > 100 µM | TGI [6]: > 100 µM | GI50 [7]: > 100000 nM | TGI [7]: > 100 µM | GI50 [29]: 4.83 µM | TGI [29]: 49.4 µM | GI50 [9]: 4.43 µM | TGI [9]: > 100 µM | GI50 [10]: 3140 nM | TGI [10]: > 100 µM | GI50 [32]: 27.5 µM | TGI [32]: 86.7 µM | GI50 [11]: > 100 µM | TGI [11]: > 100000 nM | GI50 [33]: > 100 µM | TGI [33]: > 100 µM | GI50 [12]: 34.8 µM | TGI [12]: > 100 µM | GI50 [35]: 2260 nM | TGI [35]: 5.72 µM | GI50 [37]: 2210 nM | TGI [37]: 5.35 µM | GI50 [38]: 4.99 µM | TGI [38]: > 100 µM | GI50 [39]: 3.86 µM | TGI [39]: > 100 µM | GI50 [45]: 1.83 µM | TGI [45]: 3.57 µM | GI50 [47]: > 100 µM | TGI [47]: > 100 µM | GI50 [48]: 2960 nM | TGI [48]: > 100 µM | GI50 [14]: 1520 nM | TGI [14]: 5.32 µM | GI50 [51]: 2920 nM | TGI [51]: > 100 µM | GI50 [15]: 3.01 µM | TGI [15]: > 100 µM | GI50 [16]: 11.7 µM | TGI [16]: 61.5 µM | GI50 [55]: 6.23 µM | TGI [55]: > 100 µM
